From patent US20180099931A1 (AbbVie S.à.r.l., priority 2016, published 2018)
Where two headings read alike, the source gives them in different places.

Target: T1, F508delCFTR (Homo sapiens, UniProt P13569, DEL508-508)
T1 construct: expressed in transfected cells; host or cells: CFBE41o- human lung-derived epithelial cells (CFBE4lo-F508delCFTR-HRP), doxycycline-inducible
Test: Cell Surface Expression-Horse Radish Peroxidase (CSE-HRP) Assay;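 for Maximum % activity (with co-corrector): co-corrector and positive control are both the same reference corrector at 2 µM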;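 for Maximum % activity (without co-corrector): percent of the 2 µM on-plate positive control corrector response above DMSO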
Type: cell-based
Conditions: for Emax / Maximum % activity (with co-corrector): maximum at any tested concentration, normalized to on-plate positive control; for Emax: read-out: Maximum % activity (without co-corrector)

[1] = test compound without co-corrector
[2] = test compound without co-corrector, read-out: EC50 (without co-corrector)
[3] = with co-corrector (2 μM of 3-[(2R,4R)-4-({[1-(2,2-difluoro-1,3-benzodioxol-5-yl)cyclopropyl]carbonyl}amino)-7-methoxy-3,4-dihydro-2H-chromen-2-yl]benzoic acid)
[4] = with co-corrector (2 μM of 3-[(2R,4R)-4-({[1-(2,2-difluoro-1,3-benzodioxol-5-yl)cyclopropyl]carbonyl}amino)-7-methoxy-3,4-dihydro-2H-chromen-2-yl]benzoic acid), read-out: EC50 (with co-corrector)
[5] = CSE-HRP, test compound without co-corrector, read-out: EC50 (without co-corrector)
[6] = CSE-HRP, with co-corrector (2 μM of 3-[(2R,4R)-4-({[1-(2,2-difluoro-1,3-benzodioxol-5-yl)cyclopropyl]carbonyl}amino)-7-methoxy-3,4-dihydro-2H-chromen-2-yl]benzoic acid), read-out: EC50 (with co-corrector)
[7] = CSE-HRP, with co-corrector (2 μM)

T1 sequence (P13569 with tags, fused parts or gaps DEL508-508): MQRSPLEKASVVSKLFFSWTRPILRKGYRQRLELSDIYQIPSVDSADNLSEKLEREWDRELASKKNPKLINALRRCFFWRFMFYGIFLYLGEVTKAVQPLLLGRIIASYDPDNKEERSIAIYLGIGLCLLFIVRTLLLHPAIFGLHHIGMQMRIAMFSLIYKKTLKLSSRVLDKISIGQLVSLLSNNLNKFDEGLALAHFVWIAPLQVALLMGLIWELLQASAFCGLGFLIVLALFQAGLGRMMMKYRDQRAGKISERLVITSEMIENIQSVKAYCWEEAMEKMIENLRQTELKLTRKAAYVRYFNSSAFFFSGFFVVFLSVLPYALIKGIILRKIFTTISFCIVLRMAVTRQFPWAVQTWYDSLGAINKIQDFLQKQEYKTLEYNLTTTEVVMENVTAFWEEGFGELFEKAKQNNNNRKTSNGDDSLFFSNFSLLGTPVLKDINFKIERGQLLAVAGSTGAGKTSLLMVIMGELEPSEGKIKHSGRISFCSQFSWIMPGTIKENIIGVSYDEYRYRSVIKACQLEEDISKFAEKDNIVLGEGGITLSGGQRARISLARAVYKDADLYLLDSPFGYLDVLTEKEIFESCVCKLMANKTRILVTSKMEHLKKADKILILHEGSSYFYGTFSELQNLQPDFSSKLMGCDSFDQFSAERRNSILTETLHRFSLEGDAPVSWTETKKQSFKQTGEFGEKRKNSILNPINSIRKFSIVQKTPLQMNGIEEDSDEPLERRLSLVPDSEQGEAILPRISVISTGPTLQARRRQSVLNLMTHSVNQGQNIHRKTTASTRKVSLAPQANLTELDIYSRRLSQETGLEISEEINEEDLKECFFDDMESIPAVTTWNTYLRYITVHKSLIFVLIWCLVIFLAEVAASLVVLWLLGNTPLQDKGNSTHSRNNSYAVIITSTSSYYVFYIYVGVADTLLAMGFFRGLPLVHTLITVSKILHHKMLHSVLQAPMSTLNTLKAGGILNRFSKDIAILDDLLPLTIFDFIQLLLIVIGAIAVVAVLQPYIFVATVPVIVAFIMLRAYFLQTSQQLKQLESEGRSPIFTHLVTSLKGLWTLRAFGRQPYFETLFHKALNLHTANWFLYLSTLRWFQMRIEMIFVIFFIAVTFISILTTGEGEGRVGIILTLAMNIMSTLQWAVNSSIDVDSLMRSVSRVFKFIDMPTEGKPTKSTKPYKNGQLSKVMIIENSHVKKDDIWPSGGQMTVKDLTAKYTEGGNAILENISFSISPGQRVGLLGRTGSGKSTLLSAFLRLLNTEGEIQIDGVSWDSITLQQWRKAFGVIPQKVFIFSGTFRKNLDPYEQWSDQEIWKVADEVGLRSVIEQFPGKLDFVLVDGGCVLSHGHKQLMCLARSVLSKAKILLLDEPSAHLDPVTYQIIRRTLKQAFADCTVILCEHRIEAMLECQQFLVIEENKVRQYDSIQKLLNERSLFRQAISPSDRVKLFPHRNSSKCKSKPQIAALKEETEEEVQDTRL

Compound	Emax [1] [%]	EC50 [2] [nM]	Maximum % activity (with co-corrector) [3]	EC50 [4] [nM]	Maximum % activity (with co-corrector) (with co-corrector (2 μM))	Emax (without co-corrector) [%]	EC50 [5] [nM]	EC50 [6] [nM]	Maximum % activity (with co-corrector) [7]	Emax (CSE-HRP, without co-corrector) [%]
COc1ncc(C2CC2)cc1CN[C@H]1[C@H](C(C)(C)C)[C@@H](C(=O)O)N(C(=O)[C@@H]2CCCCO2)[C@H]1c1ccccc1C(C)C [Example 115, (2S,3S,4S,5S)-3-tert-butyl-4-{[(5-cyclopropyl-2-methoxypyridin-3-yl)methyl]amino}-1-[(2S)-oxane-2-carbonyl]-5-[2-(propan-2-yl)phenyl]pyrrolidine-2-carboxylic acid]	–	1000 to 10000	–	< 1000	+++ (≥350)	> 200	–	–	–	–
COc1ccc(C(C)(C)C)cc1CN[C@H]1[C@H](C(C)(C)C)[C@@H](C(=O)O)N(C(=O)c2c(C)nn(-c3ccccc3F)c2C)[C@H]1c1ccccc1 [Example I-146]	–	1000 to 10000	–	< 1000	+++ (≥350)	> 200	–	–	–	–
CC(C)(C)[C@H]1[C@H](NCc2cc(C(F)(F)F)cc(C(F)(F)F)c2)[C@H](c2ccccc2)N(C(=O)C2CCCCC2)[C@@H]1C(=O)O [II-108]	–	–	–	–	–	–	1000 to 10000	1000 to 10000	+++ (≥350)	< 100
COc1ncc(Br)cc1CN[C@H]1[C@H](C(C)(C)OC)[C@@H](C(=O)O)N(C(=O)C2CCCCC2)[C@H]1c1ccccc1 [II-247]	–	–	–	–	–	–	1000 to 10000	< 1000	+++ (≥350)	100 to 200
COc1ccc(C(C)(C)C)cc1CN[C@H]1[C@H](C(C)(C)C)[C@@H](C(=O)O)N(C(=O)[C@H]2CCC[C@H](OC)C2)[C@H]1c1ccccc1 [Example I-58]	–	1000 to 10000	–	1000 to 10000	+++ (≥350)	> 200	–	–	–	–
COc1ncc(C2CCCCC2)cc1CN[C@H]1[C@H](C(C)(C)C)[C@@H](C(=O)O)N(C(=O)C2CCCCC2)[C@H]1c1ccccc1 [Example I-72]	–	< 1000	–	< 1000	+++ (≥350)	> 200	–	–	–	–
COc1ncc(C(F)(F)F)cc1CN[C@H]1[C@H](C(C)(C)C)[C@@H](C(=O)O)N(C(=O)[C@@H]2CCCCO2)[C@H]1c1cccnc1N(C)C [Example I-208]	–	1000 to 10000	–	1000 to 10000	+++ (≥350)	100 to 200	–	–	–	–
Cc1cc(C(F)(F)F)cc(N[C@@H]2[C@@H](C)[C@H](C(=O)O)N(C(=O)N(C(C)C)C(C)C)[C@@H]2c2ccccc2)n1 [II-11]	–	–	–	–	–	–	1000 to 10000	1000 to 10000	+++ (≥350)	< 100
CCc1ccccc1[C@H]1[C@@H](NCc2cc(C3CCC3)cnc2OC)[C@H](C(C)(C)C)[C@@H](C(=O)O)N1C(=O)[C@@H]1CCCCO1 [Example I-297]	–	–	–	–	–	–	1000 to 10000	< 1000	+++ (≥350)	> 200
COc1ccc(C(C)(C)C)cc1CN[C@H]1[C@H](C(C)(C)C)[C@@H](C(=O)O)N(C(=O)[C@@H]2OCC[C@@H]2C(C)C)[C@H]1c1ccccc1 (relative stereo) [Example I-104, (2S,3S,4S,5S)-3-tert-butyl-4-{[(5-tert-butyl-2-methoxyphenyl)methyl]amino}-5-phenyl-1-[(2R*,3R*)-3-(propan-2-yl)oxolane-2-carbonyl]pyrrolidine-2-carboxylic acid]	–	1000 to 10000	–	1000 to 10000	+++ (≥350)	100 to 200	–	–	–	–
COc1ccc(C(F)(F)F)cc1CN[C@@H]1[C@@H](C(C)(C)C)[C@H](C(=O)O)N(C(=O)C2CCOC(C)(C)C2)[C@@H]1c1ccccc1N(C)C (mixture of isomers) [II-24]	–	–	–	–	–	–	1000 to 10000	1000 to 10000	+++ (≥350)	> 200

The next lines start with the values.

Emax [1] [%]	EC50 [2] [nM]	Maximum % activity (with co-corrector) [3]	EC50 [4] [nM]	Maximum % activity (with co-corrector) (with co-corrector (2 μM))	Emax (without co-corrector) [%]	EC50 [5] [nM]	EC50 [6] [nM]	Maximum % activity (with co-corrector) [7]	Emax (CSE-HRP, without co-corrector) [%]	Compound
100 to 200	< 1000	+++ (≥350)	< 1000	–	–	–	–	–	–	COc1ncc(-c2ccccc2)cc1CN[C@H]1[C@H](C(C)(C)C)[C@@H](C(=O)O)N(C(=O)C2CCCCC2)[C@H]1c1ccccc1F [II-423]
> 200	1000 to 10000	+++ (≥350)	1000 to 10000	–	–	–	–	–	–	COc1cc2ccccc2cc1CN[C@H]1[C@H](C(C)(C)C)[C@@H](C(=O)O)N(C(=O)OC(C)C)[C@H]1c1ccccc1 [II-550]
> 200	1000 to 10000	+++ (≥350)	< 1000	–	–	–	–	–	–	COc1ccc(C(C)(C)C)cc1CN[C@H]1[C@H](C(C)(C)C)[C@@H](C(=O)O)N(C(=O)[C@H](C)Oc2ccccc2)[C@H]1c1ccccc1 [II-319]
< 100	> 10000	–	1000 to 10000	++ (≥150 and <350)	–	–	–	–	–	CC(C)(C)[C@H]1[C@H](NCc2cc3ccccc3nc2O)[C@H](c2ccccc2)N(C(=O)C2CCCCC2)[C@@H]1C(=O)O [III-180]
100 to 200	1000 to 10000	–	< 1000	+++ (≥350)	–	–	–	–	–	COc1ccc(C(C)(C)C)cc1CN[C@H]1[C@H](C(C)(C)C)[C@@H](C(=O)O)N(C(=O)Cc2ccc(Cl)cc2)[C@H]1c1ccccc1 [III-166]
< 100	> 10000	++ (≥150 and <350)	1000 to 10000	–	–	–	–	–	–	CC(C)(C)[C@@H]1[C@@H](NCc2cc(C(F)(F)F)ccc2OCCO)[C@@H](c2ccccc2)N(C(=O)C2CCCCC2)[C@H]1C(=O)O (racemic) [III-66]
> 200	1000 to 10000	+++ (≥350)	1000 to 10000	–	–	–	–	–	–	C#CCOC(=O)N1[C@H](C(=O)O)[C@@H](C(C)(C)C)[C@H](NCc2cc(C(C)(C)C)ccc2OC)[C@@H]1c1ccccc1 [II-384]
> 200	1000 to 10000	+++ (≥350)	1000 to 10000	–	–	–	–	–	–	COc1ccc(C(C)(C)C)cc1CN[C@H]1[C@H](C(C)(C)C)[C@@H](C(=O)O)N(C(=O)C2CC2)[C@H]1c1ccccc1 [II-333]
–	–	–	–	–	–	1000 to 10000	1000 to 10000	+++ (≥350)	> 200	COc1ccc(C(C)(C)C)cc1CN[C@H]1[C@H](C(C)(C)C)[C@@H](C(=O)O)N(C(=O)C2CCC2)[C@H]1c1ccccc1 [II-313]
–	–	–	–	–	–	1000 to 10000	1000 to 10000	+++ (≥350)	< 100	COc1ncc(Br)cc1CN[C@H]1[C@H](C(C)(C)C)[C@@H](C(=O)O)N(C(=O)C2CCCCC2)[C@H]1c1ccccc1F [II-263]
< 100	1000 to 10000	+++ (≥350)	1000 to 10000	–	–	–	–	–	–	COc1nc(C(C)(C)C)ccc1CN[C@H]1[C@H](C(C)(C)C)[C@@H](C(=O)O)N(C(=O)[C@H]2OC[C@H]3CCC[C@H]32)[C@H]1c1ccccc1 (relative stereo) [II-432]
> 200	1000 to 10000	+++ (≥350)	< 1000	–	–	–	–	–	–	COc1ccc(C(C)(C)C)cc1CN[C@H]1[C@H](C(C)(C)C)[C@@H](C(=O)O)N(C(=O)c2cnn(-c3ccc(F)cc3F)c2C)[C@H]1c1ccccc1 [II-356]
> 200	< 1000	+++ (≥350)	< 1000	–	–	–	–	–	–	COc1ccc(C(C)(C)C)cc1CN[C@H]1[C@H](C(C)(C)C)[C@@H](C(=O)O)N(C(=O)c2cnn(-c3ccc(F)cc3)c2C)[C@H]1c1ccccc1 [II-354]
